# Reference: patent US20260256792A1, “TREATMENT OF CHRONIC SPONTANEOUS URTICARIA BY ADMINISTERING (R)-2-[3-[4-AMINO-3-(2-FLUORO-4-PHENOXY-PHENYL)PYRAZOLO[3,4-D]PYRIMIDIN-1-YL]PIPERIDINE-1-CARBONYL]-4-METHYL-4-[4-(OXETAN-3-YL)PIPERAZIN-1-YL]PENT-2-ENENITRILE” (priority 2023, published 2026)
# System: moderate-to-severe chronic spontaneous urticaria (CSU)
# Experiment: Phase 2 CSU study: urticaria activity score over 7 days (UAS7)
# Type: in vivo, human
# Settings: ITT
# From the text: The study comprises a 12 week, randomized, double-blind, placebo-controlled, multi-center, dose-ranging efficacy and safety phase, followed by a 40 week open label extension (OLE) phase (see FIG. 1). The study consists of three phases and an optional OLE phase. […] Clinically, CSU is characterized by the spontaneous and recurrent appearance of pruritic hives. The proposed primary endpoints were the UAS7 at Week 12 in EU and EU reference countries and the ISS7 in the US. Regardless of where a participant was from, all assessments were the same. The UAS7 score is a composite score containing both the HSS7 and the ISS7. This allowed a global assessment of the two key components of urticaria: hives and itch. […] The UAS is a validated PRO measure. […] The daily UAS scores range from 0 to 6 point/day. […] Patients were to complete the UAS using the e-diary. […] The following secondary endpoints were to be analyzed using the same approach as for the primary endpoint: • Change from baseline in UAS7 at Week 4 • Change from baseline in UAS7 at Week 12 (for US and US reference countries) • Change from baseline in ISS7 at Week 12 (except US and US reference countries) • Change from baseline in HSS7 at Week 12 The following responder secondary endpoints were to be analyzed using the Cochran-Mantel-Haenszel test adjusted by region: • Proportion of participants with UAS7<6 at Week 12 • Proportion of participants with UAS7=0 at Week 12 Participants who received selected prohibited medications and/or rescue medications were to be considered as non-responders for time points after the medication usage. For other participants, all available data including those collected during the off-treatment period were to be used to determine the responder/non-responder status. Missing data were to be considered as non-responders.
smiles,measurement,setting,value
"CC(C)(C=C(C#N)C(=O)N1CCC[C@@H](n2nc(-c3ccc(Oc4ccccc4)cc3F)c3c(N)ncnc32)C1)N1CCN(C2COC2)CC1 [rilzabrutinib, (R)-2-[3-[4-amino-3-(2-fluoro-4-phenoxy-phenyl)pyrazolo[3,4-d]pyrimidin-1-yl]piperidine-1-carbonyl]-4-methyl-4-[4-(oxetan-3-yl)piperazin-1-yl]pent-2-enenitrile]","Responder n (%), UAS7 ≤6","400 mg QPM, Week 12",2 (5.3) n (%)
same,"Imputed non-responder n (%), UAS7 = 0","400 mg TID, Week 1",0 n (%)
same,"Imputed non-responder n (%), UAS7 ≤6","400 mg TID, Week 1",0 n (%)
same,"Non-responder n (%), UAS7 = 0","400 mg TID, Week 1",40 (97.6) n (%)
same,"Non-responder n (%), UAS7 ≤6","400 mg TID, Week 1",31 (75.6) n (%)
same,"OR for rilzabrutinib vs. placebo, UAS7 = 0","400 mg TID, Week 1",1.084
same,"RRD (%) for rilzabrutinib vs. placebo, UAS7 = 0","400 mg TID, Week 1",0.2 %
same,"RRD (%) for rilzabrutinib vs. placebo, UAS7 ≤6","400 mg TID, Week 1",17.6 %
same,"Responder n (%), UAS7 = 0","400 mg TID, Week 1",1 (2.4) n (%)
same,"Responder n (%), UAS7 ≤6","400 mg TID, Week 1",10 (24.4) n (%)
same,"Imputed non-responder n (%), UAS7 = 0","400 mg TID, Week 2",0 n (%)
same,"Imputed non-responder n (%), UAS7 ≤6","400 mg TID, Week 2",0 n (%)
same,"Non-responder n (%), UAS7 = 0","400 mg TID, Week 2",35 (85.4) n (%)
same,"Non-responder n (%), UAS7 ≤6","400 mg TID, Week 2",30 (73.2) n (%)
same,"OR for rilzabrutinib vs. placebo, UAS7 = 0","400 mg TID, Week 2",6.522
same,"OR for rilzabrutinib vs. placebo, UAS7 ≤6","400 mg TID, Week 2",6.049
same,"RRD (%) for rilzabrutinib vs. placebo, UAS7 = 0","400 mg TID, Week 2",11.0 %
same,"RRD (%) for rilzabrutinib vs. placebo, UAS7 ≤6","400 mg TID, Week 2",19.4 %
same,"Responder n (%), UAS7 = 0","400 mg TID, Week 2",6 (14.6) n (%)
same,"Responder n (%), UAS7 ≤6","400 mg TID, Week 2",11 (26.8) n (%)
same,"Imputed non-responder n (%), UAS7 = 0","400 mg TID, Week 3",0 n (%)
same,"Imputed non-responder n (%), UAS7 ≤6","400 mg TID, Week 3",0 n (%)
same,"Non-responder n (%), UAS7 = 0","400 mg TID, Week 3",37 (90.2) n (%)
same,"Non-responder n (%), UAS7 ≤6","400 mg TID, Week 3",30 (73.2) n (%)
same,"OR for rilzabrutinib vs. placebo, UAS7 = 0","400 mg TID, Week 3",4.480
same,"OR for rilzabrutinib vs. placebo, UAS7 ≤6","400 mg TID, Week 3",3.055
same,"RRD (%) for rilzabrutinib vs. placebo, UAS7 = 0","400 mg TID, Week 3",6.9 %
same,"RRD (%) for rilzabrutinib vs. placebo, UAS7 ≤6","400 mg TID, Week 3",14.9 %
same,"Responder n (%), UAS7 = 0","400 mg TID, Week 3",4 (9.8) n (%)
same,"Responder n (%), UAS7 ≤6","400 mg TID, Week 3",11 (26.8) n (%)
same,"Imputed non-responder n (%), UAS7 = 0","400 mg TID, Week 4",3 (7.3) n (%)
same,"Imputed non-responder n (%), UAS7 ≤6","400 mg TID, Week 4",3 (7.3) n (%)
same,"Non-responder n (%), UAS7 = 0","400 mg TID, Week 4",37 (90.2) n (%)
same,"Non-responder n (%), UAS7 ≤6","400 mg TID, Week 4",34 (82.9) n (%)
same,"OR for rilzabrutinib vs. placebo, UAS7 = 0","400 mg TID, Week 4",1.867
same,"OR for rilzabrutinib vs. placebo, UAS7 ≤6","400 mg TID, Week 4",1.217
same,"RRD (%) for rilzabrutinib vs. placebo, UAS7 = 0","400 mg TID, Week 4",4.0 %
same,"RRD (%) for rilzabrutinib vs. placebo, UAS7 ≤6","400 mg TID, Week 4",2.4 %
same,"Responder n (%), UAS7 = 0","400 mg TID, Week 4",4 (9.8) n (%)
same,"Responder n (%), UAS7 ≤6","400 mg TID, Week 4",7 (17.1) n (%)
same,"Imputed non-responder n (%), UAS7 = 0","400 mg TID, Week 5",3 (7.3) n (%)
same,"Imputed non-responder n (%), UAS7 ≤6","400 mg TID, Week 5",3 (7.3) n (%)
same,"Non-responder n (%), UAS7 = 0","400 mg TID, Week 5",34 (82.9) n (%)
same,"Non-responder n (%), UAS7 ≤6","400 mg TID, Week 5",27 (65.9) n (%)
same,"OR for rilzabrutinib vs. placebo, UAS7 = 0","400 mg TID, Week 5",7.606
same,"OR for rilzabrutinib vs. placebo, UAS7 ≤6","400 mg TID, Week 5",8.858
same,"RRD (%) for rilzabrutinib vs. placebo, UAS7 = 0","400 mg TID, Week 5",13.2 %
same,"RRD (%) for rilzabrutinib vs. placebo, UAS7 ≤6","400 mg TID, Week 5",26.0 %
same,"Responder n (%), UAS7 = 0","400 mg TID, Week 5",7 (17.1) n (%)
same,"Responder n (%), UAS7 ≤6","400 mg TID, Week 5",14 (34.1) n (%)
same,"Imputed non-responder n (%), UAS7 = 0","400 mg TID, Week 6",5 (12.2) n (%)
same,"Imputed non-responder n (%), UAS7 ≤6","400 mg TID, Week 6",5 (12.2) n (%)
same,"Non-responder n (%), UAS7 = 0","400 mg TID, Week 6",32 (78.0) n (%)
same,"Non-responder n (%), UAS7 ≤6","400 mg TID, Week 6",28 (68.3) n (%)
same,"OR for rilzabrutinib vs. placebo, UAS7 = 0","400 mg TID, Week 6",9.649
same,"OR for rilzabrutinib vs. placebo, UAS7 ≤6","400 mg TID, Week 6",2.273
same,"RRD (%) for rilzabrutinib vs. placebo, UAS7 = 0","400 mg TID, Week 6",17.2 %
same,"RRD (%) for rilzabrutinib vs. placebo, UAS7 ≤6","400 mg TID, Week 6",14.2 %
same,"Responder n (%), UAS7 = 0","400 mg TID, Week 6",9 (22.0) n (%)
same,"Responder n (%), UAS7 ≤6","400 mg TID, Week 6",13 (31.7) n (%)
same,"Imputed non-responder n (%), UAS7 = 0","400 mg TID, Week 7",6 (14.6) n (%)
same,"Imputed non-responder n (%), UAS7 ≤6","400 mg TID, Week 7",6 (14.6) n (%)
same,"Non-responder n (%), UAS7 = 0","400 mg TID, Week 7",37 (90.2) n (%)
same,"Non-responder n (%), UAS7 ≤6","400 mg TID, Week 7",30 (73.2) n (%)
same,"OR for rilzabrutinib vs. placebo, UAS7 = 0","400 mg TID, Week 7",4.480
same,"OR for rilzabrutinib vs. placebo, UAS7 ≤6","400 mg TID, Week 7",3.247
